Type in all cases: binding
Holding throughout (parameters): key: No binding of immunoglobulin for the defined peptide variant, detection negative: 0; Binding of immunoglobulin for the defined peptide variant, detection positive: +

For one assay, the system named is serum albumin. The experiment in a line: Cellulose-immobilized 13-mer peptide variants incubated with serum albumin (negative control), anti-human IgG-AP detection. Conditions: blocking buffer without addition, 3 h room temperature. In short, it runs like this: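 Peptides on cellulose via a (βA)(βA) spacer were blocked in T-TBS (pH 8.0) with 5% saccharose and 4% BSA, then exposed for 3 h at room temperature to IgG-Fc (1 μg/ml), serum diluted 1:10,000, or blocking buffer alone. Bound IgG was detected with AP-anti-human IgG (1.2 μg/ml) and NBT/BCIP colour development.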

Assay [1] concerns immunoglobulins in human plasma. Put plainly: Cellulose-immobilized 13-mer peptide variants incubated with human plasma, anti-human IgG-AP detection. The following applies: human plasma as sample, diluted 1:10,000 in blocking buffer, 3 h room temperature. In short, it runs like this:
(§1)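 Read-out was colorimetric NBT/BCIP staining (developing buffer pH 9.5) after alkaline phosphatase-conjugated anti-human IgG at 1.2 μg/ml. Before this, the immobilized peptides had been incubated 3 h at room temperature with 1 μg/ml IgG-Fc, 1:10,000 diluted serum, or albumin-containing blocking buffer without addition.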

In the next assay the test system is human IgG-Fc. Put plainly: Cellulose-immobilized 13-mer peptide variants incubated with human IgG-Fc, anti-human IgG-AP detection. Conditions: IgG-Fc 1 μg/ml in blocking buffer, 3 h room temperature. The method, boiled down: as §1

Bridge positions count the residues as written; N and C are the ends. Square brackets hold non-standard residues; d marks the D form. Ends that are not written are not given here. cellulose = not defined here; βAla = NCCC(=O)O

Turning to “12A: cellulose-bound 13-mer variant DCAWHLGELVWAT-(βA)(βA) (DCAWHLGELVWAT-{βAla-βAla-cellulose}; not fully specified; printed as DCAWHLGELVWAT-(βA)(βA); reading uncertain)”, the “Result for incubation with serum albumin (immunoglobulin binding detection)” value (from here on “Result for incubation with serum albumin”) in the assay on serum albumin turned out to be 0. Besides, the “Result for incubation with human plasma (immunoglobulin binding detection)” value (shortened to “Result for incubation with human plasma”) in assay [1] was determined as 0. For the same substance, the “Result for incubation with human IgG-Fc (immunoglobulin binding detection)” value (shortened to “Result for incubation with human IgG-Fc”) with human IgG-Fc came out at 0.

Take “01Y: cellulose-bound 13-mer variant YCAWHLGELVWCT-(βA)(βA) (YCAWHLGELVWCT-{βAla-βAla-cellulose}; disulfide 2-12 (inferred); reading uncertain; also: printed as YCAWHLGELVWCT-(βA)(βA))”: the “Result for incubation with serum albumin” value in the assay on serum albumin was 0. In addition, the “Result for incubation with human plasma” value in assay [1] was found to be 0. In addition, the “Result for incubation with human IgG-Fc” value in the assay on human IgG-Fc was determined as 0.

In the case of “02A: cellulose-bound 13-mer variant DAAWHLGELVWCT-(βA)(βA) (DAAWHLGELVWCT[βAla][βAla]; not fully specified; printed as DAAWHLGELVWCT-(βA)(βA); also: cellulose-bound)”, in the assay with serum albumin, the “Result for incubation with serum albumin” value came out at 0. For the same substance, the “Result for incubation with human plasma” value in assay [1] was determined as 0. In addition, the “Result for incubation with human IgG-Fc” value in the assay with human IgG-Fc stood at 0.

With “07S: cellulose-bound 13-mer variant DCAWHLSELVWCT-(βA)(βA) (DCAWHLSELVWCT-{βAla-βAla-cellulose}; disulfide 2-12 (inferred); not fully specified (N-terminus); printed as DCAWHLSELVWCT-(βA)(βA); reading uncertain)”, in the assay with serum albumin, the “Result for incubation with serum albumin” value worked out at 0. Besides, in assay [1], the “Result for incubation with human plasma” value was found to be 0. In addition, the “Result for incubation with human IgG-Fc” value with human IgG-Fc was found to be 0.

Turning to “04N: cellulose-bound 13-mer variant DCANHLGELVWCT-(βA)(βA) (DCANHLGELVWCT[βAla][βAla]; disulfide 2-12 (inferred); also: cellulose-bound)”, the “Result for incubation with serum albumin” value in the assay on serum albumin worked out at 0. For the same substance, the “Result for incubation with human plasma” value in assay [1] was found to be 0. Besides, the “Result for incubation with human IgG-Fc” value with human IgG-Fc is “+”.

As to “11F: cellulose-bound 13-mer variant DCAWHLGELVFCT-(βA)(βA) (DCAWHLGELVFCT-{βAla-βAla-cellulose}; disulfide 2-12 (inferred); reading uncertain; also: printed as DCAWHLGELVFCT-(βA)(βA))”, in the assay with serum albumin, the “Result for incubation with serum albumin” value was determined as 0. Besides, in assay [1], the “Result for incubation with human plasma” value turned out to be 0. Further, in the assay with human IgG-Fc, the “Result for incubation with human IgG-Fc” value was 0.

“10R: cellulose-bound 13-mer variant DCAWHLGELRWCT-(βA)(βA) (DCAWHLGELRWCT-{βAla-βAla-cellulose}; disulfide 2-12 (inferred); reading uncertain; also: printed as DCAWHLGELRWCT-(βA)(βA))”: the “Result for incubation with serum albumin” value with serum albumin was 0. Moreover, the “Result for incubation with human plasma” value in assay [1] stood at 0. Further, the “Result for incubation with human IgG-Fc” value in the assay on human IgG-Fc was determined as 0.

As to “06D: cellulose-bound 13-mer variant DCAWHDGELVWCT-(βA)(βA) (DCAWHDGELVWCT[βAla][βAla]; disulfide 2-12 (inferred); not fully specified (N-terminus); printed as DCAWHDGELVWCT-(βA)(βA); also: cellulose-bound)”, the “Result for incubation with serum albumin” value with serum albumin was found to be 0. In assay [1], the “Result for incubation with human plasma” value is reported as 0. Also, the “Result for incubation with human IgG-Fc” value in the assay on human IgG-Fc is “+”.

With “04T: cellulose-bound 13-mer variant DCATHLGELVWCT-(βA)(βA) (disulfide 2-12 (inferred); not fully specified (N-terminus, C-terminus); printed as DCATHLGELVWCT-(βA)(βA); also: cellulose-bound)”, the “Result for incubation with serum albumin” value with serum albumin was 0. In addition, the “Result for incubation with human plasma” value in assay [1] is given as “+”. For the same substance, the “Result for incubation with human IgG-Fc” value in the assay with human IgG-Fc is “+”.

For “01I: cellulose-bound 13-mer variant ICAWHLGELVWCT-(βA)(βA) (ICAWHLGELVWCT-{βAla-βAla-cellulose}; disulfide 2-12 (inferred); reading uncertain; also: printed as ICAWHLGELVWCT-(βA)(βA))”, the “Result for incubation with serum albumin” value in the assay on serum albumin came to 0. Also, the “Result for incubation with human plasma” value in assay [1] is listed as 0. In the assay on human IgG-Fc, the “Result for incubation with human IgG-Fc” value is listed as 0.

With “05K: cellulose-bound 13-mer variant DCAWKLGELVWCT-(βA)(βA) (disulfide 2-12 (inferred); not fully specified (N-terminus, C-terminus); printed as DCAWKLGELVWCT-(βA)(βA); also: cellulose-bound)”, in the assay on serum albumin, the “Result for incubation with serum albumin” value is on record as 0. In addition, the “Result for incubation with human plasma” value in assay [1] is 0. Further, in the assay on human IgG-Fc, the “Result for incubation with human IgG-Fc” value was 0.

Take “10S: cellulose-bound 13-mer variant DCAWHLGELSWCT-(βA)(βA) (DCAWHLGELSWCT-{βAla-βAla-cellulose}; disulfide 2-12 (inferred); reading uncertain; also: printed as DCAWHLGELSWCT-(βA)(βA))”: the “Result for incubation with serum albumin” value in the assay on serum albumin was 0. Also, the “Result for incubation with human plasma” value in assay [1] was found to be 0. Besides, the “Result for incubation with human IgG-Fc” value in the assay on human IgG-Fc is recorded as 0.

As for “08Y: cellulose-bound 13-mer variant DCAWHLGYLVWCT-(βA)(βA) (DCAWHLGYLVWCT-{βAla-βAla-cellulose}; disulfide 2-12 (inferred); reading uncertain; also: printed as DCAWHLGYLVWCT-(βA)(βA))”, the “Result for incubation with serum albumin” value in the assay on serum albumin amounted to 0. Also, in assay [1], the “Result for incubation with human plasma” value stood at 0. Also, in the assay with human IgG-Fc, the “Result for incubation with human IgG-Fc” value was determined as 0.

Take “05L: cellulose-bound 13-mer variant DCAWLLGELVWCT-(βA)(βA) (disulfide 2-12 (inferred); not fully specified (N-terminus, C-terminus); printed as DCAWLLGELVWCT-(βA)(βA); also: cellulose-bound)”: the “Result for incubation with serum albumin” value in the assay on serum albumin was found to be 0. Further, in assay [1], the “Result for incubation with human plasma” value turned out to be 0. In the assay with human IgG-Fc, the “Result for incubation with human IgG-Fc” value was 0.

As for “10L: cellulose-bound 13-mer variant DCAWHLGELLWCT-(βA)(βA) (DCAWHLGELLWCT-{βAla-βAla-cellulose}; disulfide 2-12 (inferred); reading uncertain; also: printed as DCAWHLGELLWCT-(βA)(βA))”, in the assay on serum albumin, the “Result for incubation with serum albumin” value is recorded as 0. In addition, in assay [1], the “Result for incubation with human plasma” value came to 0. The “Result for incubation with human IgG-Fc” value with human IgG-Fc was found to be 0.

(Values after patent US7205382B2, “Peptides, the production and use thereof for binding immunoglobulins” (Fresenius Medical Care Affina GmbH, priority 2000, dated 2007).)
